Measurements from patent US20230271964A1, “5-AMINO-8-(4-PYRIDYL)-[1,2,4]TRIAZOLO[4,3-C]PYRIMIDIN-3-ONE COMPOUNDS FOR USE AGAINST CANCER” (ASTRAZENECA AB, priority 2020, published 2023).

Tests used:
[1] = target: human adenosine A1 receptor (Homo sapiens (Human), UniProt P30542); assay: Adenosine receptor inhibition binding assay, [3H]DPCPX, A1 receptor membranes; conditions: 1 nM [3H]DPCPX, 25° C., 1 h, Ki from IC50 by Cheng-Prusoff; for Ki: read-out: A1 pKi (converted)
Outline: (§1)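 Membranes from BacMam-transduced HEK293 cells (0.2 µg A2A; 1.4 µg A1) incubated 1 h at 25 °C with 1 nM radioligand; A2A in 50 mM Tris-HCl pH 7.4, A1 buffer adds 100 mM NaCl, 10 mM MgCl2. Nonspecific binding: 1 µM CGS 15943 (A2A) or 1 µM DPCPX (A1). Filtration, scintillation counting; IC50 converted to Ki via Cheng-Prusoff.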

[2] = target: human adenosine A2A receptor (Homo sapiens (Human), UniProt P29274); assay: Adenosine receptor inhibition binding assay, [3H]ZM241385, HEK293 A2A receptor membranes; conditions: 1 nM [3H]ZM241385, HEK293-hA2A membranes, 25° C., 1 h, Ki from IC50 by Cheng-Prusoff; for Ki: read-out: A2A pKi (converted)
human adenosine A2A receptor, sequence (P29274 whole entry): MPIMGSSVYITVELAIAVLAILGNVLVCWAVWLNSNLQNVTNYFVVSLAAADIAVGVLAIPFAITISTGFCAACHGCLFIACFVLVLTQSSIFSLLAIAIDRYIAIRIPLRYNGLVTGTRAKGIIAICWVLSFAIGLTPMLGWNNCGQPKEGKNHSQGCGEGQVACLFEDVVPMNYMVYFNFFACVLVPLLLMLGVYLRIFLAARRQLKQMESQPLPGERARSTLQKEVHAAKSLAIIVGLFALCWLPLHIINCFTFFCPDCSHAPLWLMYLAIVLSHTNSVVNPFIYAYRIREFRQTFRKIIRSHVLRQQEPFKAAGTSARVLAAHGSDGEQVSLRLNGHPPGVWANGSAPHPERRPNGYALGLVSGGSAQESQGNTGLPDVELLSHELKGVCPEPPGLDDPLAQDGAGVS
Outline: as §1

human CB1 receptor = human CB1 receptor (Homo sapiens (Human), UniProt P21554); assay: CB1 receptor antagonism, agonist-induced cAMP modulation (HTRF) in transfected CHO cells; format: cell-based; conditions: read-out: Antag IC50
human CB1 receptor, sequence (P21554 whole entry): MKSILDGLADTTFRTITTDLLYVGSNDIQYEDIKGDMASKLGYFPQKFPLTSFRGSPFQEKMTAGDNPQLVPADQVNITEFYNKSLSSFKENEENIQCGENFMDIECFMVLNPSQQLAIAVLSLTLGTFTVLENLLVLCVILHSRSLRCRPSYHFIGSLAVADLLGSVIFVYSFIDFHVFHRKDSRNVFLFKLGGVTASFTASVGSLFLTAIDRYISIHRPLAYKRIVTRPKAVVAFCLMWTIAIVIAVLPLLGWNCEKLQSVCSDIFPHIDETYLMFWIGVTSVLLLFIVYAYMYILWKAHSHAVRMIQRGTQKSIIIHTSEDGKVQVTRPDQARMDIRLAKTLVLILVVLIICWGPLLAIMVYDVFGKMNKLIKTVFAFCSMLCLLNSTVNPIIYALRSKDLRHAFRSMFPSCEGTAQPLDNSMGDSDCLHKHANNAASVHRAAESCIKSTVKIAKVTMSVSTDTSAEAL
Description: Receptor antagonism: Evaluation of the antagonist activity of compounds at the human CB1 receptor expressed in transfected CHO cells, determined by measuring their effects on agonist-induced cAMP modulation using the HTRF detection method.
Thereafter, the reference agonist CP 55940 and the adenylyl cyclase activator NKH 477 are added at respective final concentrations of 3 nM and 3 µM.
For basal control measurements, CP 55940 is omitted from the wells containing 3 µM AM 281.
Following 20 min incubation at 37° C., the cells are lysed and the fluorescence acceptor (D2-labeled cAMP) and fluorescence donor (anti-cAMP antibody labeled with europium cryptate) are added.
After 60 min at room temperature, the fluorescence transfer is measured at λex=337 nm and λem=620 and 665 nm using a microplate reader (Rubystar, BMG). The cAMP concentration is determined by dividing the signal measured at 665 nm by that measured at 620 nm (ratio).
The standard reference antagonist is AM 281, which is tested in each experiment at several concentrations to generate a concentration-response curve from which its IC50 value is calculated.

human adenosine A1 receptor, sequence (P30542 whole entry): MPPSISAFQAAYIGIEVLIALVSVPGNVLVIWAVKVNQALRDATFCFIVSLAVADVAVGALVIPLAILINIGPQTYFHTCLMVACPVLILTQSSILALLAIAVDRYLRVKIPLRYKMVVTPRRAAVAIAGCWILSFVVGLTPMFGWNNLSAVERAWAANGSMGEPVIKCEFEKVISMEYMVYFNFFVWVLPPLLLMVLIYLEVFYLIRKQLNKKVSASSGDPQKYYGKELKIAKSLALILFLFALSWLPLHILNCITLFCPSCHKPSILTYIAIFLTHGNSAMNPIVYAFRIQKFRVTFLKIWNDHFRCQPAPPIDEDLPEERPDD

Row | SMILES | A1 pKi [1] | A2A pKi [2] | IC50 (human CB1 receptor) | Ki [1] | Ki [2]
1 | Cc1cc(-c2c(-c3ccccc3)nc(N)n3c(=O)n(CCc4nnnn4C)nc23)cc(C)n1 [Example 1-5, 5-amino-8-(2,6-dimethyl-4-pyridyl)-2-[2-(1-methyltetrazol-5-yl)ethyl]-7-phenyl-[1,2,4]triazolo[4,3-c]pyrimidin-3-one] | <5.4 | 7.2 | > 100 µM | – | –
2 | Cc1cc(-c2c(-c3ccccc3)nc(N)n3c(=O)n(Cc4ccn(C)n4)nc23)cc(C)n1 [Example 1-16, 5-amino-8-(2,6-dimethyl-4-pyridyl)-2-[(1-methylpyrazol-3-yl)methyl]-7-phenyl-[1,2,4]triazolo[4,3-c]pyrimidin-3-one] | 7.2 | 9.4 | > 100 µM | – | –
3 | Cc1nc(Cn2nc3c(-c4cc(C)[n+]([O-])c(C)c4)c(-c4ccc(F)cc4)nc(N)n3c2=O)c(C)o1 [Example 1-35, 5-amino-2-[(2,5-dimethyloxazol-4-yl)methyl]-8-(2,6-dimethyl-1-oxido-pyridin-1-ium-4-yl)-7-(4-fluorophenyl)-[1,2,4]triazolo[4,3-c]pyrimidin-3-one] | 7.4 | 8.4 | > 100 µM | – | –
4 | Cc1cc(-c2c(-c3ccccc3)nc(N)n3c(=O)n(Cc4nccn4C)nc23)cc(C)[n+]1[O-] [Example 1-36, 5-amino-8-(2,6-dimethyl-1-oxido-pyridin-1-ium-4-yl)-2-[(1-methylimidazol-2-yl)methyl]-7-phenyl-[1,2,4]triazolo[4,3-c]pyrimidin-3-one] | 7.3 | 8.0 | > 100 µM | – | –
5 | Cc1ocnc1Cn1nc2c(-c3cc(C)[n+]([O-])c(C)c3)c(-c3ccc(F)cc3)nc(N)n2c1=O [Example 1-37, 5-amino-8-(2,6-dimethyl-1-oxido-pyridin-1-ium-4-yl)-7-(4-fluorophenyl)-2-[(5-methyloxazol-4-yl)methyl]-[1,2,4]triazolo[4,3-c]pyrimidin-3-one] | 6.8 | 8.8 | > 100 µM | – | –
6 | COc1cc(-c2c(-c3ccccc3)nc(N)n3c(=O)n(Cc4nccn4C)nc23)cc(C)n1 [Example 1-38, 5-amino-8-(2-methoxy-6-methyl-4-pyridyl)-2-[(1-methylimidazol-2-yl)methyl]-7-phenyl-[1,2,4]triazolo[4,3-c]pyrimidin-3-one] | 7.8 | 9.5 | > 100 µM | – | –
7 | Cc1cc(-c2c(-c3ccccc3)nc(N)n3c(=O)n(Cc4nonc4C)nc23)cc(CO)n1 [Example 1-46, 5-amino-8-[2-(hydroxymethyl)-6-methyl-4-pyridyl]-2-[(4-methyl-1,2,5-oxadiazol-3-yl)methyl]-7-phenyl-[1,2,4]triazolo[4,3-c]pyrimidin-3-one] | 6.4 | 9.3 | > 100 µM | – | –
8 | Cc1cc(-c2c(-c3ccc(F)cc3)nc(N)n3c(=O)n(Cc4ccn(C)n4)nc23)cc(CO)n1 [Example 1-52, 5-amino-7-(4-fluorophenyl)-8-[2-(hydroxymethyl)-6-methyl-4-pyridyl]-2-[(1-methylpyrazol-3-yl)methyl]-[1,2,4]triazolo[4,3-c]pyrimidin-3-one] | 6.7 | 8.6 | > 100 µM | – | –
9 | Cc1cc(-c2c(-c3ccc(F)cc3)nc(N)n3c(=O)n(Cc4nc(C)oc4C)nc23)cc(CO)n1 [Example 1-53, 5-amino-2-[(2,5-dimethyloxazol-4-yl)methyl]-7-(4-fluorophenyl)-8-[2-(hydroxymethyl)-6-methyl-4-pyridyl]-[1,2,4]triazolo[4,3-c]pyrimidin-3-one] | 6.5 | 9.2 | > 100 µM | – | –
10 | Cn1ccnc1Cn1nc2c(-c3cc(Cl)nc(CO)c3)c(-c3ccccc3)nc(N)n2c1=O [Example 1-55, 5-amino-8-[2-chloro-6-(hydroxymethyl)-4-pyridyl]-2-[(1-methylimidazol-2-yl)methyl]-7-phenyl-[1,2,4]triazolo[4,3-c]pyrimidin-3-one] | 7.5 | 9.4 | > 100 µM | – | –
11 | Cn1ccnc1Cn1nc2c(-c3cc(Cl)nc(CO)c3)c(-c3ccc(F)cc3)nc(N)n2c1=O [Example 1-58, 5-amino-8-[2-chloro-6-(hydroxymethyl)-4-pyridyl]-7-(4-fluorophenyl)-2-[(1-methylimidazol-2-yl)methyl]-[1,2,4]triazolo[4,3-c]pyrimidin-3-one] | 7.1 | 9.5 | > 100 µM | – | –
12 | [2H]c1c([2H])c([2H])c(-c2nc(N)n3c(=O)n(C[C@H]4CCCO4)nc3c2-c2cc(Cl)nc(CO)c2)c([2H])c1[2H] [Example 2-33, 5-amino-8-[2-chloro-6-(hydroxymethyl)-4-pyridyl]-7-(2,3,4,5,6-pentadeuteriophenyl)-2-[[(2R)-tetrahydrofuran-2-yl]methyl]-[1,2,4]triazolo[4,3-c]pyrimidin-3-one] | – | – | – | 0.158 µM | 0.000316 µM
13 | Nc1nc(-c2ccc(F)cc2)c(-c2cc(Cl)nc(CO)c2)c2nn(C[C@H]3CCCO3)c(=O)n12 [Example 2-34, 5-amino-8-[2-chloro-6-(hydroxymethyl)-4-pyridyl]-7-(4-fluorophenyl)-2-[[(2R)-tetrahydrofuran-2-yl]methyl]-[1,2,4]triazolo[4,3-c]pyrimidin-3-one] | 6.3 | 9.4 | – | – | –
14 | [2H]c1c([2H])c([2H])c(-c2nc(N)n3c(=O)n(C[C@H]4CCCO4)nc3c2-c2cc(CO)nc(OC)c2)c([2H])c1[2H] [Example 2-36, 5-amino-8-[2-(hydroxymethyl)-6-methoxy-4-pyridyl]-7-(2,3,4,5,6-pentadeuteriophenyl)-2-[[(2R)-tetrahydrofuran-2-yl]methyl]-[1,2,4]triazolo[4,3-c]pyrimidin-3-one] | – | – | – | 1.26 µM | 0.000794 µM
15 | COc1cc(-c2c(-c3ccc(F)cc3)nc(N)n3c(=O)n(C[C@H]4CCCO4)nc23)cc(CO)n1 [Example 2-37, 5-amino-7-(4-fluorophenyl)-8-[2-(hydroxymethyl)-6-methoxy-4-pyridyl]-2-[[(2R)-tetrahydrofuran-2-yl]methyl]-[1,2,4]triazolo[4,3-c]pyrimidin-3-one] | 5.5 | 9.0 | – | – | –
16 | Cc1cc(-c2c(-c3ccccc3)nc(N)n3c(=O)n(CCNC4CCN(C(=O)c5cccnc5)C4)nc23)cc(C)n1 (centres unmarked) [Example 3-2, 5-amino-8-(2,6-dimethyl-4-pyridyl)-7-phenyl-2-[2-[[1-(pyridine-3-carbonyl)pyrrolidin-3-yl]amino]ethyl]-[1,2,4]triazolo[4,3-c]pyrimidin-3-one] | 5.6 | 6.9 | – | – | –
17 | Cc1cc(-c2c(-c3ccccc3)nc(N)n3c(=O)n(CCN(C)c4cn[nH]c4)nc23)cc(C)n1 [Example 3-3, 5-amino-8-(2,6-dimethyl-4-pyridyl)-2-[2-[methyl(1H-pyrazol-4-yl)amino]ethyl]-7-phenyl-[1,2,4]triazolo[4,3-c]pyrimidin-3-one] | 5.7 | 7.2 | – | – | –
18 | Cc1cc(-c2c(N3CCCCC3)nc(N)n3c(=O)n(Cc4ncoc4C)nc23)cc(C)n1 [Example 4-1, 5-amino-8-(2,6-dimethyl-4-pyridyl)-2-[(5-methyloxazol-4-yl)methyl]-7-(1-piperidyl)-[1,2,4]triazolo[4,3-c]pyrimidin-3-one] | <6.0 | 8.9 | – | – | –
